{"source": "patent US6472430B2", "about": "“Amino thioxomethyl amino oxyacetic acid derivatives” (priority 2000, dated 2002)", "key": {"Male Sprague-Dawley rats": {"tested_on": "Male Sprague-Dawley rats", "experiment": "Determination of serum HDL cholesterol in cholesterol/cholic acid-fed rats", "type": "in vivo, rat", "conditions": "dose of 100 mg/kg mixed in diet, eight days, six rats per group, diet with 0.25% cholic acid and 1.0% cholesterol, serum HDL cholesterol by FPLC; for change in vivo at 100 mg/kg: Rattus norvegicus, feed or water, 192 h, read-out: HDL Cholesterol Level Increase (%)", "protocol": "The ability of the compounds of this invention to increase blood serum HDL levels was evaluated by the following standard experimental procedure for determination of HDL cholesterol:\nMale Sprague-Dawley rats weighing 200-225 g were housed two per cage and fed Purina Rodent Chow Special Mix 5001-S supplemented with 0.25% cholic acid and 1.0% cholesterol and water ad libitum for 8 days. Each test substance was administered to a group of six rats fed the same diet with the test diet mixed in as 0.005-0.1% of the total diet. Body weight and food consumption were recorded prior to diet administration and at termination. Typical doses of the test substances are 5-100 mg/kg/day.\nAt termination, blood was collected from anesthetized rats and the serum was separated by centrifugation. Total serum cholesterol was assayed using the Sigma Diagnostics enzymatic kit for the determination of cholesterol, Procedure No. 352, modified for use with ninety-six well microtiter plates. After reconstitution with water the reagent contained 300 U/l cholesterol oxidase, 100 U/l cholesterol esterase, 1000 U/l horseradish peroxidase, […] p-hydroxybenzenesulfonate in a pH 6.5 buffer. In the reaction cholesterol is oxidized to produce hydrogen peroxide which is used to form a quinoneimine dye. The concentration of dye formed is measured spectrophotometrically by absorbence at 490 nm after incubation at 25° C. for 30 minutes. The concentration of cholesterol was determined for each serum sample relative to a commercial standard from Sigma.\nHDL cholesterol concentrations in serum were determined by separation of lipoprotein classes by fast protein liquid chromatography (FPLC) by a modification of the method of Kieft et al., J. Lipid Res., 32 (1991) 859-866. 25 ul of serum was injected onto Superose 12 and Superose 6 (Pharmacia), in series, with a column buffer of 0.05 M Tris (2-amino-2-hydroxymethyl-1,3-propanediol) and 0.15 M sodium chloride at a flow rate of 0.5 ml/min. The eluted sample was mixed on line with Boehringer-Mannheim cholesterol reagent pumped at 0.2 ml/min. The combined eluents were mixed and incubated on line through a knitted coil (Applied Biosciences) maintained at a temperature of 45° C. The eluent was monitored by measuring absorbance at 490 nm and gave a continuous absorbance signal proportional to the cholesterol concentration. The relative concentration of each lipoprotein class was calculated as the per cent of total absorbency. HDL cholesterol concentration, in serum, was calculated as the per cent of total cholesterol as determined by FPLC multiplied by the total serum cholesterol concentration.\nTest compounds were administered at a dose of 100 mg/kg. Each test substance was administered to a group of six rats. The duration of treatment was eight days."}}}
{"compound": "CCOC(=O)CON(C)C(=S)Nc1cc(Cl)ccc1C", "note": "[Example 1, Ethyl [[[[(5-Chloro-2-methylphenyl)amino]thioxomethyl]methylamino]oxy]acetate]", "values": [{"measurement": "melting point", "result": "83 to 84", "unit": "°C"}, {"measurement": "change in vivo at 100 mg/kg", "setting": "Male Sprague-Dawley rats", "result": 118, "unit": "%"}]}
{"compound": "CCOC(=O)CON(C)C(=S)Nc1ccc(Cl)cc1C", "note": "[Example 2, Ethyl [[[[(4-Chloro-2-methylphenyl)amino]thioxomethyl]methylamino]oxy]acetate]", "values": [{"measurement": "melting point", "result": "104 to 106", "unit": "°C"}, {"measurement": "change in vivo at 100 mg/kg", "setting": "Male Sprague-Dawley rats", "result": 62, "unit": "%"}]}
{"compound": "CCOC(=O)CON(C)C(=S)Nc1ccc2c(c1)CCC2", "note": "[Example 3, Ethyl [[[[(2,3-dihydro-1H-inden-5-yl)amino]thioxomethyl]methylamino]oxy]acetate]", "values": [{"measurement": "melting point", "result": "69 to 71", "unit": "°C"}, {"measurement": "change in vivo at 100 mg/kg", "setting": "Male Sprague-Dawley rats", "result": 146, "unit": "%"}]}
{"compound": "CCOC(=O)CON(C)C(=S)Nc1cc(C)ccc1C", "note": "[Example 5, Ethyl [[[[(2,5-dimethylphenyl)amino]thioxomethyl]methylamino]oxy]acetate]", "values": [{"measurement": "change in vivo at 100 mg/kg", "setting": "Male Sprague-Dawley rats", "result": 40, "unit": "%"}]}
{"compound": "CCOC(=O)CON(C)C(=S)NCC(C)C", "note": "[Example 6, Ethyl [[[[(2-methylpropyl)amino]thioxomethyl]methylamino]oxy]acetate]", "values": [{"measurement": "change in vivo at 100 mg/kg", "setting": "Male Sprague-Dawley rats", "result": 17, "unit": "%"}]}
{"compound": "CCOC(=O)CON(C)C(=S)Nc1ccc(Oc2ccccc2)cc1", "note": "[Example 7, Ethyl [[[[(4-phenoxyphenyl)amino]thioxomethyl]methylamino]oxy]acetate]", "values": [{"measurement": "change in vivo at 100 mg/kg", "setting": "Male Sprague-Dawley rats", "result": 35, "unit": "%"}]}
{"compound": "CCOC(=O)CON(CC)C(=S)Nc1ccc(Cl)cc1C", "note": "[Example 8, Ethyl [[[[(4-Chloro-2-methylphenyl)amino]thioxomethyl]ethylamino]oxy]acetate]", "values": [{"measurement": "melting point", "result": "69 to 71", "unit": "°C"}, {"measurement": "change in vivo at 100 mg/kg", "setting": "Male Sprague-Dawley rats", "result": 90, "unit": "%"}]}
{"compound": "CCOC(=O)CON(C(=S)Nc1cc(Cl)ccc1C)C(C)C", "note": "[Example 9, Ethyl [[[[(5-Chloro-2-methylphenyl)amino]thioxomethyl](1-methylethyl)amino]oxy]acetate]", "values": [{"measurement": "melting point", "result": "83 to 85", "unit": "°C"}, {"measurement": "change in vivo at 100 mg/kg", "setting": "Male Sprague-Dawley rats", "result": 46, "unit": "%"}]}
{"compound": "CCOC(=O)CON(C(=S)Nc1cc(Cl)ccc1C)C(C)CC", "note": "(stereo not drawn) [Example 10, Ethyl [[[[(5-Chloro-2-methylphenyl)amino]thioxomethyl](1-methylpropyl)amino]oxy]acetate]", "values": [{"measurement": "change in vivo at 100 mg/kg", "setting": "Male Sprague-Dawley rats", "result": 39, "unit": "%"}]}
{"compound": "Ethyl [[methyl[[(2-(1-methylethyl)phenyl]amino]thioxomethyl]methylamino]oxy]acetate [Example 4]", "values": [{"measurement": "HDL Cholesterol Level Increase (%)", "setting": "Male Sprague-Dawley rats", "result": 104, "unit": "%"}]}
